Measured values from patent US8431593B2, “Heteroaryl amide derivatives” (H. Lundbeck A/S, priority 2006, dated 2013).

What follows are molecules tested against T1, P2X7 receptor (Homo sapiens, UniProt Q99572) (assay: P2X7 calcium mobilization assay, high throughput, antagonist activity (Example 4A)). Conditions: 50% decrease in the fluorescence response of cells exposed to 80 μM 2′(3′)-O-(4-benzoyl-benzoyl)adenosine 5′-triphosphate; Example 4A; read-out: IC50.
T1 construct: host or cells: SH-SY5Y
T1 sequence (Q99572 1-595): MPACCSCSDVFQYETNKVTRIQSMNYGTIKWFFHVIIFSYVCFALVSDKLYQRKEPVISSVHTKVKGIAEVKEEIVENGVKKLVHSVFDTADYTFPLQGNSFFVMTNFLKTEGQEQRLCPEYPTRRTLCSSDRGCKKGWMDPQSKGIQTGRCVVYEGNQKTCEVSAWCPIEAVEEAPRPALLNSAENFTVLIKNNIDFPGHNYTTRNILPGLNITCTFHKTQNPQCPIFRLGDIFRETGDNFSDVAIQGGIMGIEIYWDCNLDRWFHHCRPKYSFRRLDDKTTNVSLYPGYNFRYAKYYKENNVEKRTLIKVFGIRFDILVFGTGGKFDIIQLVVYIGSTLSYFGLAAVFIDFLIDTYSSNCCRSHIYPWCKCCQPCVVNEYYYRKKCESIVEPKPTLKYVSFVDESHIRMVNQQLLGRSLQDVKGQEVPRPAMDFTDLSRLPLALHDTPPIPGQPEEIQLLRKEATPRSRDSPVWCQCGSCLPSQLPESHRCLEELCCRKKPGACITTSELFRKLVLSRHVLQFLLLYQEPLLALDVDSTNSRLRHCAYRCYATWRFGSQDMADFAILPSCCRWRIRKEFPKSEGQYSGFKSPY
Format: cell-based
Procedure, shortened: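 FLIPR^TETRA calcium read-out: maximum RFU per well minus average no-agonist control, with agonist wells giving the average positive maximum. Cells seeded at 100,000/well one day ahead, dye-loaded 1 h, rinsed, then exposed to compound for 1 h at room temperature.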

IC50 [nM]	SMILES
< 2000	C[C@@H]1CNCCN1C(=O)c1cn2c(C(=O)NCC34CC5CC(CC(C5)C3)C4)cccc2n1 [Compound 600, N-(adamantan-1-ylmethyl)-2-{[(2R)-2-methylpiperazin-1-yl]carbonyl}imidazo[1,2-a]pyridine-5-carboxamide]
< 2000	C[C@H]1CNCCN1C(=O)c1cn2c(C(=O)NCC34CC5CC(CC(C5)C3)C4)cccc2n1 [Compound 601, N-(adamantan-1-ylmethyl)-2-{[(2S)-2-methylpiperazin-1-yl]carbonyl}imidazo [1,2-a]pyridine-5-carboxamide]
< 2000	CC1CNCCN1C(=O)c1cn2c(C(=O)NCC34CC5CC(CC(C5)C3)C4)cccc2n1 (centres unmarked) [Compound 602, N-(adamantan-1-ylmethyl)-2-[(2-methylpiperazin-1-yl)carbonyl]imidazo[1,2-a]pyridine-5-carboxamide]
< 2000	O=C(NCC12CC3CC(CC(C3)C1)C2)c1cccc2nc(C(=O)N3CCNCC3)cn12 [Compound 603, N-(adamantan-1-ylmethyl)-2-(piperazin-1-ylcarbonyl) imidazo[1,2-a]pyridine-5-carboxamide]
< 2000	C[C@@H]1CN(C(=O)c2cn3c(C(=O)NCC45CC6CC(CC(C6)C4)C5)cccc3n2)CCN1 [Compound 604, N-(adamantan-1-ylmethyl)-2-{[(3R)-3-methylpiperazin-1-yl]carbonyl}imidazo[1,2-a]pyridine-5-carboxamide]
< 2000	CN(C(=O)c1cn2c(C(=O)NCC34CC5CC(CC(C5)C3)C4)cccc2n1)C1CCCNC1 (centres unmarked) [Compound 605, 5-N-(adamantan-1-ylmethyl)-2-N-methyl-2-N-piperidin-3-ylimidazo[1,2-a]pyridine-2,5-dicarboxamide]
< 2000	CN(C(=O)c1cn2c(C(=O)NCC34CC5CC(CC(C5)C3)C4)cccc2n1)C1CCNCC1 [Compound 606, 5-N-(adamantan-1-ylmethyl)-2-N-methyl-2-N-piperidin-4-ylimidazo[1,2-a]pyridine-2,5-dicarboxamide]
< 2000	O=C(NCC12CC3CC(CC(C3)C1)C2)c1cccc2nc(C(=O)N3CCCNCC3)cn12 [Compound 608, N-(adamantan-1-ylmethyl)-2-(1,4-diazepan-1-ylcarbonyl)imidazo[1,2-a]pyridine-5-carboxamide]
< 2000	CN(C)CCCN(C(=O)c1cn2c(C(=O)NCC34CC5CC(CC(C5)C3)C4)cccc2n1)C1CCNCC1 [Compound 610, 5-N-(adamantan-1-ylmethyl)-2-N-[3-(dimethylamino)propyl]-2-N-piperidin-4-ylimidazo[1,2-a]pyridine-2,5-dicarboxamide]
< 2000	CC(C)[C@H]1CNCCN1C(=O)c1cn2c(C(=O)NCC34CC5CC(CC(C5)C3)C4)cccc2n1 [Compound 612, N-(adamantan-1-ylmethyl)-2-{[(2S)-2-isopropylpiperazin-1-yl]carbonyl}imidazo[1,2-a]pyridine-5-carboxamide]
< 2000	CC(C)[C@@H]1CNCCN1C(=O)c1cn2c(C(=O)NCC34CC5CC(CC(C5)C3)C4)cccc2n1 [Compound 613, N-(adamantan-1-ylmethyl)-2-{[(2R)-2-isopropylpiperazin-1-yl]carbonyl}imidazo[1,2-a]pyridine-5-carboxamido]
< 2000	C[C@H]1CN(C(=O)c2cn3c(C(=O)NCC45CC6CC(CC(C6)C4)C5)cccc3n2)CCN1 [Compound 616, N-(adamantan-1-ylmethyl)-2-{[(3S)-3-methylpiperazin-1-yl]carbonyl}imidazo[1,2-a]pyridine-5-carboxamide]
< 2000	CN(C)CCN(C(=O)c1cn2c(C(=O)NCC34CC5CC(CC(C5)C3)C4)cccc2n1)C1CCNCC1 [Compound 617, 5-N-(adamantan-1-ylmethyl)-2-N-[2-(dimethylamino)ethyl]-2-N-piperidin-4-ylimidazo[1,2-a]pyridine-2,5-dicarboxamide]

Second part, the molecule before the results:

SMILES	IC50 [nM]
CC1(C)[C@@H]2CC[C@@H](CNC(=O)c3cccc4nc(CC(=O)N5CC[C@@H](N)C5)cn34)[C@H]1C2 [Compound 588, 2-{2-[(3R)-3-aminopyrrolidin-1-yl]-2-oxoethyl}-N-{[(1R,2R,5R)-6,6-dimethylbicyclo[3.1.1]hept-2-yl]methyl}imidazo [1,2-a]pyridine-5-carboxamide]	< 2000
CC1(C)[C@@H]2CC[C@@H](CNC(=O)c3cccc4nc(CC(=O)NCC5CCNCC5)cn34)[C@H]1C2 [Compound 589, N-{[(1R,2R,5R)-6,6-dimethylbicyclo[3.1.1]hept-2-yl]methyl}-2-{2-oxo-2-[(piperidin-4-ylmethyl)amino]ethyl} imidazo[1,2-a]pyridine-5-carboxamide]	< 2000
CC1(C)[C@@H]2CC[C@@H](CNC(=O)c3cccc4nc(CC(=O)NCC5CCCN5)cn34)[C@H]1C2 (stereo partly drawn) [Compound 590, N-{[(1R,2R,5R)-6,6-dimethylbicyclo[3.1.1]hept-2-yl]methyl}-2-{2-oxo-2-[(pyrrolidin-2-ylmethyl)amino]ethyl} imidazo[1,2-a]pyridine-5-carboxamide]	< 2000
CC1(C)[C@@H]2CC[C@@H](CNC(=O)c3cccc4nc(CC(=O)NC5CCNC5)cn34)[C@H]1C2 (stereo partly drawn) [Compound 591, N-{[(1R,2R,5R)-6,6-dimethylbicyclo[3.1.1]hept-2-yl]methyl}-2-[2-oxo-2-(pyrrolidin-3-ylamino)ethyl]imidazo [1,2-a]pyridine-5-carboxamide]	< 2000
CC1(C)[C@@H]2CC[C@@H](CNC(=O)c3cccc4nc(CC(=O)NC5CCNCC5)cn34)[C@H]1C2 [Compound 592, N-{[(1R,2R,5R)-6,6-dimethylbicyclo[3.1.1]hept-2-yl]methyl}-2-[2-oxo-2-(piperidin-4-ylamino)ethyl]imidazo [1,2-a]pyridine-5-carboxamide]	< 2000
CC1(C)[C@@H]2CC[C@@H](CNC(=O)c3cccc4nc(CC(=O)N5CCOC(CN)C5)cn34)[C@H]1C2 (stereo partly drawn) [Compound 594, 2-{2-[2-(aminomethyl)morpholin-4-yl]-2-oxoethyl}-N-{[(1R,2R,5R)-6,6-dimethylbicyclo [3.1.1]hept-2-yl]methyl}imidazo[1,2-a]pyridine-5-carboxamide]	< 2000
Cc1cc(-c2cn3c(C(=O)NCC(CC(C)C)c4cccnc4)cccc3n2)n[nH]1 (centres unmarked) [Compound 595, 2-(5-methyl-1H-pyrazol-3-yl)-N-(4-methyl-2-pyridin-3-ylpentyl)imidazo[1,2-a]pyridine-5-carboxamide]	< 2000
CNCc1cn2c(C(=O)NCC34CC5CC(CC(C5)C3)C4)cccc2n1 [Compound 596, N-(adamantan-1-ylmethyl)-2-[(methylamino)methyl] imidazo[1,2-a] pyridine-5-carboxamide]	< 2000
CC(C)NCc1cn2c(C(=O)NCC34CC5CC(CC(C5)C3)C4)cccc2n1 [Compound 597, N-(adamantan-1-ylmethyl)-2-[(isopropylamino)methyl]imidazo [1,2-a]pyridine-5-carboxamide]	< 2000
N#CCc1cn2c(C(=O)NCC34CC5CC(CC(C5)C3)C4)cccc2n1 [Compound 598, N-(adamantan-1-ylmethyl)-2-(cyanomethyl)imidazo [1,2-a]pyridine-5-carboxamide]	< 2000
O=C(NCC12CC3CC(CC(C3)C1)C2)c1cccc2nc(CCI)cn12 [Compound 599, N-(adamantan-1-ylmethyl)-2-(2-iodoethyl)imidazo[1,2-a]pyridine-5-carboxamide]	< 2000
O=C(NCC12CC3CC(CC(C3)C1)C2)c1cccc2nc(C(=O)N3C[C@@H]4C[C@H]3CN4)cn12 [Compound 609, N-(adamantan-1-ylmethyl)-2-[(1S,4S)-2,5-diazabicyclo [2.2.1]hept-2-ylcarbonyl]imidazo[1,2-a]pyridine-5-carboxamide]	< 2000
CNC1CCN(C(=O)c2cn3c(C(=O)NCC45CC6CC(CC(C6)C4)C5)cccc3n2)C1 (centres unmarked) [Compound 611, N-(adamantan-1-ylmethyl)-2-{[3-(methylamino)pyrrolidin-1-yl]carbonyl}imidazo[1,2-a]pyridine-5-carboxamide]	< 2000
CC(C)[C@@H]1CN(C(=O)c2cn3c(C(=O)NCC45CC6CC(CC(C6)C4)C5)cccc3n2)CCN1 [Compound 614, N-(adamantan-1-ylmethyl)-2-{[(3R)-3-isopropylpiperazin-1-yl]carbonyl}imidazo[1,2-a]pyridine-5-carboxamide]	< 2000
CC(C)[C@H]1CN(C(=O)c2cn3c(C(=O)NCC45CC6CC(CC(C6)C4)C5)cccc3n2)CCN1 [Compound 615, N-(adamantan-1-ylmethyl)-2-{[(3S)-3-isopropylpiperazin-1-yl]carbonyl}imidazo[1,2-a]pyridine-5-carboxamide]	< 2000

Same assay, conditions: 50% decrease in the fluorescence response of cells exposed to 80 μM of 2′(3′)-O-(4-benzoyl-benzoyl)adenosine 5′-triphosphate; Example 4A; read-out: IC50

IC50 [nM]	SMILES
< 2000	COCCN(C(=O)c1cn2c(C(=O)NCC34CC5CC(CC(C5)C3)C4)cccc2n1)C1CCNCC1 [Compound 618, 5-N-(adamantan-1-ylmethyl)-2-N-(2-methoxyethyl)-2-N-piperidin-4-yl imidazo[1,2-a]pyridine-2,5-dicarboxamide]
